The text below walks through data of patent US5317022A, “Pharmaceutical composition and use” (priority 1991, dated 1994).

Counter-ions that a name gives are not always drawn. Like-named read-outs stand apart in the source and are kept apart here.

Series [1] concerns rat. Nature of the series: analgetic effect, hot plate (rat). The class given is in vivo.
In series [2] the test system is rat. Nature of the series: analgetic effect, tail flick (rat). It is filed as in vivo.
The test system of series [3] is rat. As to the kind of experiment: animal or person. The following applies: read-out: algolyt. test (rat) 100% activity.
Series [4] has as its target (^3 H)naloxone binding sites. Nature of the series: competition binding assay with (3H)naloxone on rat brain membranes. The note with it: membranes incubated with (3H)naloxone 1 nM and increasing ligand concentrations; read-out: Affinity constants (Ki nM) in competition assays. The method, then:
(§1) Membrane preparation: A crude membrane fraction from rat brain (PVG/C strain) was prepared [Mol. Pharm.11 (1975) 340-351 and the protein content was defined [Anal. Biochem. 72(1976) 248-254).
(§2) The membrane suspension (200-400 μg protein) was incubated with the specific radioligand for 1 hour on ice. Incubations were terminated by rapid filtration under vacuo followed by washing with ice cold tris HCl buffer (50 mM, pH 7,4). Radioactivity was measured in a toluene based scintillation mixture on a LKB Minibeta Liquid Scintillation Spectrophotometer. Nonspecific binding was defined in the presence of 10 μM unlabeled naloxone. All assays were performed in triplicate and repeated several times. Ki values were determined from equilibrium experiments and calculated with the Tshang-Prusov equation. The data were evaluated using the Ligand program [Anal. Biol. Chem. 107 (1980) 220-239](Data shown on Table III/1).

The target in series [5] is (^3 H)naloxone binding sites. As to the kind of experiment: wash-resistant binding of (3H)naloxone, rat brain membranes. The note with it: preincubated with (3H)naloxone 1 nM and test compound; remaining specific binding after several washings; average of 2-4 data; compound.HCl; read-out: Ki (nM), affinity constants. The method, then: as §1, §2
After preincubation a thorough washing was performed. [Life Sci. 32 (1983) 2777-2784]. Control values are represented by the specific binding of (3H)naloxone to membranes preincubated with a buffer and treated in the same way. Heterologous displacement experiments were used to evaluate the affinity of the investigated compounds for (^3 H)naloxone binding sites.

The next series has as its system rats. Nature of the series: sedative (narcosis potentiating) effect, Inactine base narcotic, rats. It is filed as in vivo. The method, then: Inactine (35 mg/kg) was used as a base narcotic.
*ED500 % = dose increasing narcosis to five times the control.

Series [6] relates to rabbits. As to the kind of experiment: effect on respiration on conscious rabbits (III.6, type A/B/C tests). The class given is in vivo. Also on record: resp. change ampl.: unit not given here. The protocol:
The method as described above in Example III.5 was used on conscious rabbits of 2,5-3 kg weight. Registration was continued for 3-4 hours. The samples were injected under the skin of the neck and the respiration parameters were registered at intervals of 10 minutes.

The subject of a further series is mice. Nature of the series: analgetic effect, writhing test (mice). The class given is in vivo. (Writhing tests count abdominal constrictions after an irritant is injected.)
In series [7] the test system is rabbits. Nature of the series: effects on respiration on conscious rabbits (III.5, Marey-drum). The protocol:
Investigation was carried out on conscious rabbits of both sexes and of 3-4 kg weight by way of a Marey-drum. Frequency and amplitude of respiration were quantitatively evaluated.

The mark [8] stands for this setting: Rattus norvegicus; read-out: hot plate (rat) ED50.
Where [9] appears, read: Rattus norvegicus; read-out: tail flick (rat) ED50.
[10] abbreviates: s.c. on rats, Inactine 35 mg/kg, dose as base.
The mark [11] stands for this setting: type A: DP 0.01 mg/kg s.c., 10'.
Where [12] appears, read: type A: DP 0.01 mg/kg s.c., 20'.
Setting [13] is: type A: DP 0.025 mg/kg s.c., 10'.
Setting [14] is: type A: DP 0.025 mg/kg s.c., 20'.
Setting [15] is: type A: DP 0.05 mg/kg s.c., 10'.
[16] abbreviates: type C: DP 0.25 mg/kg together with morphine 5 mg/kg s.c., 10'.
[17] abbreviates: type C: DP 0.25 mg/kg together with morphine 5 mg/kg s.c., 20'.
Setting [18] is: type C: DP 0.25 mg/kg together with morphine 5 mg/kg s.c., 30'.
The mark [19] stands for this setting: type C: DP 0.25 mg/kg together with morphine 5 mg/kg s.c., 50'.
Where [20] appears, read: Mus musculus; read-out: writhing test (mice) ED50.
The mark [21] stands for this setting: OX 0.5 mg/kg s.c. + naloxone 0.25 mg/kg, 10 min.
The mark [22] stands for this setting: OX 0.5 mg/kg s.c., 10 min (line before naloxone).
[23] abbreviates: type A: OX 0.1 mg/kg s.c. +5 mg/kg morphine, 30 min.
Where [24] appears, read: type A: OX 0.1 mg/kg s.c. +5 mg/kg morphine, 40 min.
Where [25] appears, read: type A: OX 0.1 mg/kg s.c., 10 min.

For orientation: ED50 means the dose that gives a 50% effect, or the effect in half of the subjects. Take `COc1ccc2c3c1O[C@H]1C(=NNC(N)=S)CC[C@H]4[C@@H](C2)N(C)CC[C@]314` [Dihydrocodeinone thio-semicarbazone.HCl, Dihydrocodeinone thio-semicarbazone]: the ED50 in the series on rat [1] (setting [8]) was determined as 1.7 mg/kg; with rat [2] (setting [9]), 0.6 mg/kg. In addition, in the series with rat [3], the ED100 was determined as 5 mg/kg.

As a reminder, the Ki is the dissociation constant of the complex between target and ligand, obtained from inhibition or displacement. For the compound `CN1CC[C@]23c4c5ccc(O)c4O[C@H]2C(=NN)CC[C@@]3(O)[C@H]1C5` [oxymorphone hydrazone], in series [4], the Ki amounted to 2 nM.

Consider `CN1CC[C@]23c4c5ccc(O)c4O[C@H]2C(=NNc2ccccc2)CC[C@H]3[C@H]1C5` [dihydromorphinone phenylhydrazone], for which the Ki in series [4] was found to be 5 nM.

Turning to `CN1CC[C@]23c4c5ccc(O)c4O[C@H]2C(=NO)CC[C@H]3[C@H]1C5` [dihydromorphinone oxime], the inhibitory constant (Ki) in series [4] was 2 nM.

`COc1ccc2c3c1O[C@H]1C(=NNc4ccccc4)CC[C@H]4[C@@H](C2)N(C)CC[C@]314` [Dihydrocodeinone-phenylhydrazone]: the Ki in series [4] and in [5] was 323 nM each time. In addition, the ED50 in the series with rat [1] (setting [8]) came to 2.4 mg/kg; in the series with rat [2] (setting [9]), 2.3 mg/kg. The “ED500 % (dose increasing narcosis to five times the control)” value in the series on rats (setting [10]) was 3,5 mg/kg. For the same compound, the resp. change ampl. with rabbits [6] (setting [11]), in the series on rabbits [6] (setting [12]), with rabbits [6] (setting [13]), in the series on rabbits [6] (setting [14]), in the series on rabbits [6] (setting [15]) and in the series with rabbits [6] (setting [16]) was 0 each time. In addition, the resp. change ampl. in the series on rabbits [6] (setting [17]), with rabbits [6] (setting [18]) and in the series on rabbits [6] (setting [19]) was 0 in each case. Also, the resp. change fr/min entry is “+85” with rabbits [6] (setting [11]); “+96” with rabbits [6] (setting [12]); “+114” in the series with rabbits [6] (setting [13]); “+114” in the series with rabbits [6] (setting [14]); “+132” in the series with rabbits [6] (setting [15]); “+39” in the series with rabbits [6] (setting [16]). Besides, the resp. change fr/min result is listed as “+19” in the series with rabbits [6] (setting [17]), -3 in the series with rabbits [6] (setting [18]) and -4 with rabbits [6] (setting [19]). In addition, the ED100 in the series on rat [3] was determined as 10.1 mg/kg.

For the compound `CN1CC[C@]23c4c5ccc(O)c4O[C@H]2C(=NNC(N)=O)CC[C@@]3(O)[C@H]1C5` [oxymorphone semicarbazone], the Ki in series [4] was 4 nM.

Take `COc1ccc2c3c1O[C@H]1C(=O)CC[C@H]4[C@@H](C2)N(C)CC[C@]314` [Dihydrocodeinone, reference compound]: the 50% effective dose (ED50) with rat [1] (setting [8]) came to 2.2 mg/kg. In addition, the ED50 in the series on rat [2] (setting [9]) was determined as 0.98 mg/kg. Also, in the series on mice (setting [20]), the ED50 was 0.9 mg/kg. In addition, the “ED500 % (dose increasing narcosis to five times the control)” value with rats (setting [10]) is 1,9 mg/kg. Further, in the series with rabbits [7] (10-5500 μg/kg i.v., s.c.), the respiration effect result is reported as “depression”, the respiration frequency/min. result is “.dwnarw” and the respiration volume result is given as “.dwnarw”. The “influence on the respiratory depression effect of morphine (in words)” value with rabbits [7] (rabbit, in vivo) is “unambiguously potentiate the respiratory depression effect of morphine”. In addition, the “respiratory depression by the compound alone (in words)” value with rabbits [7] (rabbit, in vivo, sc) is on record as “cause respiratory depression”. Moreover, the ED100 in the series with rat [3] worked out at 4.9 mg/kg.

For `CN1CC[C@]23c4c5ccc(O)c4O[C@H]2C(=NN)CC[C@H]3[C@H]1C5` [dihydromorphinone hydrazone], in series [4], the Ki stood at 6 nM.

In the case of `COc1ccc2c3c1O[C@H]1C(=NNC(N)=O)CC[C@H]4[C@@H](C2)N(C)CC[C@]314` [Dihydrocodeinone-semicarbazone.HCl, dihydrocodeinone-semicarbazone], the ED50 in the series on rat [1] (setting [8]) amounted to 0.38 mg/kg; in the series with rat [2] (setting [9]), 0.35 mg/kg. Besides, the “hot plate (rat) ED50” value in the series on rat [1] (rat) is 0,38 mg/kg. In the series on rats (setting [10]), the “ED500 % (dose increasing narcosis to five times the control)” value was 1,0 mg/kg. In addition, the ED100 in the series with rat [3] is 10 mg/kg.

In the case of `CN1CC[C@]23c4c5ccc(O)c4O[C@H]2C(=NNc2ccccc2)CC[C@@]3(O)[C@H]1C5` [oxymorphone phenylhydrazone], the Ki in series [4] turned out to be 20 nM.

Consider `COc1ccc2c3c1O[C@H]1C(=NO)CC[C@H]4[C@@H](C2)N(C)CC[C@]314` [Dihydrocodeinone-oxime, DIHYDROCODEINON-OXIME], for which the results for the Ki in [4] and in series [5] were 52 nM and 53 nM, respectively. The ED50 stood at 4.2 mg/kg in the series on rat [1] (setting [8]), 3.7 mg/kg in the series on rat [2] (setting [9]) and 0.38 mg/kg in the series with mice (setting [20]). For the same compound, the ED100 in the series on rat [3] was found to be 25 mg/kg.

As for `CN1CC[C@]23c4c5ccc(O)c4O[C@H]2C(=NNC(N)=O)CC[C@H]3[C@H]1C5` [dihydromorphinone semicarbazone], in series [4], the inhibitory constant (Ki) stood at 3 nM.

For the compound `CN1CC[C@]23c4c5ccc(O)c4O[C@H]2C(=NO)CC[C@@]3(O)[C@H]1C5` [oxymorphone oxime], the Ki in series [4] was 2 nM.

Regarding `COc1ccc2c3c1O[C@H]1C(=NNC(N)=S)CC[C@@]4(O)[C@@H](C2)N(C)CC[C@]314` [Oxycodone-thiosemicarbazone.HCl, Oxycodone-thiosemicarbazone], the results for the ED50 with rat [1] (setting [8]) and with rat [2] (setting [9]) were 8.5 mg/kg and 4.5 mg/kg, respectively. In addition, the ED100 in the series with rat [3] is 100 mg/kg.

Consider `COc1ccc2c3c1O[C@H]1C(=NO)CC[C@@]4(O)[C@@H](C2)N(C)CC[C@]314` [Oxycodone-oxime, 14-HYDROXY-DIHYDROCODEINONE-OXIME], for which the Ki in series [4] and in series [5] was 32 nM throughout. The 50% effective dose (ED50) in the series on rat [1] (Rattus norvegicus, read-out: hot plate (rat) ED50) amounted to 1.8 mg/kg; with rat [2] (Rattus norvegicus, read-out: tail flick (rat) ED50), 1 mg/kg; in the series on mice (Mus musculus, read-out: writhing test (mice) ED50), 0.11 mg/kg. Moreover, the “ED500 % (dose increasing narcosis to five times the control)” value in the series with rats (rat, in vivo) is 0,5 mg/kg. For the same compound, the “potentiation of Inactine narcosis (in words)” value in the series with rats (rat, in vivo) is “most effectively prolongated”. The resp. change ampl. result with rabbits [6] (OX 0.005 mg/kg s.c., 30 min) was “+30”; in the series on rabbits [6] (OX 0.025 mg/kg s.c., 30 min) it was 0; in the series with rabbits [6] (OX 0.1 mg/kg s.c., 30 min), “+40”; in the series on rabbits [6] (setting [21]), “+50”; in the series on rabbits [6] (setting [22]), -50; in the series on rabbits [6] (setting [23]) it was 0. Further, the resp. change ampl. with rabbits [6] (setting [24]) is given as -40; in the series with rabbits [6] (setting [25]), “+20”. Moreover, the resp. change fr/min entry in the series with rabbits [6] (OX 0.005 mg/kg s.c., 30 min) is reported as “+30”; in the series on rabbits [6] (OX 0.025 mg/kg s.c., 30 min), “+28”; in the series on rabbits [6] (OX 0.1 mg/kg s.c., 30 min), “+47”; with rabbits [6] (setting [21]), “+50”; in the series with rabbits [6] (setting [22]) it was -50; in the series with rabbits [6] (setting [23]), “+71”. The resp. change fr/min is reported as -29 with rabbits [6] (setting [24]) and “+57” in the series on rabbits [6] (setting [25]). In the series with rabbits [6] (small doses), the “respiration number (in words)” value was “considerably increase the respiration number”. For the same compound, the ED100 in the series with rat [3] came to 10 mg/kg.
